Reference: patent US9409905B2, “Antibacterial compounds and methods for use” (PTC THERAPEUTICS, INC., priority 2011, dated 2016)
Values after ≈ are worked out from the molar mass of the structure shown.

Tests used:
[1] = system: Escherichia coli (E. coli) BAS849; experiment: Antibacterial activity, microbroth dilution MIC (Table 1); type: cell-based; details: microbroth dilution, super sensitive Gram-negative E. coli BAS849, read-out: MIC, BAS849
How it was run: (§1)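 Each strain is exposed to test compound in a microbroth dilution series; visible growth is scored macroscopically, and the lowest growth-free concentration is recorded as MIC in μg/mL.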

[2] = system: Staphylococcus aureus (S. aureus) 29213; experiment: as above; type: cell-based; details: microbroth dilution, Gram-positive S. aureus 29213, read-out: MIC, 29213
How it was run: as §1

E. coli 25922 = experiment: as above; type: cell-based, Escherichia coli; details: Escherichia coli; microbroth dilution; control Gram-negative E. coli 25922 strain; read-out: MIC, 25922
How it was run: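 MIC (μg/mL) read as lowest concentration with no macroscopically visible growth; microbroth dilution format. E. coli 25922 served as control Gram-negative strain.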

E. coli LZ3111 = experiment: Antibacterial activity, MIC, quinolone resistant strain (Table 2); type: cell-based; details: Escherichia coli, LZ3111, read-out: MIC LZ3111
How it was run: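 Microbroth dilution method; MIC (μg/mL) is the lowest drug concentration preventing macroscopically visible growth under test conditions.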

[3] = system: Acinetobacter baumannii (A. baumannii) BAA747; experiment: Antibacterial activity, MIC (Table 4); type: cell-based; details: A. baumannii BAA747, read-out: MIC, BAA747
Source text: (§2) The antibacterial activity from a microbroth dilution method may be presented as the minimum inhibitory concentration (MIC in μg/mL). The MIC value is the lowest concentration of drug which prevents macroscopically visible growth under test conditions.
(§3) Antibacterial activity of test compounds against the Gram-negative Acinetobacter baumannii (A. baumannii) BAA747 and Klebsiella pneumoniae (K. pneumoniae) 35657 bacterium and the resistant A. baumannii MXX2240 and K. pneumoniae MXX1232 strains are shown in Table 4. The MMX strains are multi-drug resistant clinical isolates.

[4] = system: Klebsiella pneumoniae (K. pneumoniae) 35657; experiment: Antibacterial activity, MIC (Table 4); type: cell-based; details: K. pneumoniae 35657, read-out: MIC, 35657
Source text: as §2, §3

A. baumannii MXX2240 = experiment: Antibacterial activity, MIC, resistant strain (Table 4); type: cell-based; details: Acinetobacter baumannii, MXX2240; resistant A. baumannii MMX2240, multi-drug resistant clinical isolate; read-out: MIC, MMX2240
Source text: as §2, §3

K. pneumoniae MXX1232 = experiment: as above; type: cell-based; details: Klebsiella pneumoniae, MXX1232; resistant K. pneumoniae MMX1232, multi-drug resistant clinical isolate; read-out: MIC, MMX1232
Source text: as §2, §3

[5] = system: Pseudomonas aeruginosa (P. aeruginosa) 27853; experiment: Antibacterial activity, MIC (Table 5); type: cell-based; details: P. aeruginosa 27853, read-out: MIC, 27853
Source text: as §2
Antibacterial activity of test compounds against the Gram-negative bacterium Pseudomonas aeruginosa (P. aeruginosa) 27853 is shown in Table 5.

SMILES	MIC [1] [µg/mL]	MIC [2] [µg/mL]	MIC (E. coli 25922) [µg/mL]	MIC (E. coli LZ3111) [µg/mL]	MIC [3] [µg/mL]	MIC [4] [µg/mL]	MIC (A. baumannii MXX2240) [µg/mL]	MIC (K. pneumoniae MXX1232) [µg/mL]	MIC [5] [µg/mL]
CCc1cc(C(=O)O)c(=O)[nH]c1-c1cnc2c(ccn2C)c1 [Cpd 31, 5-ethyl-6-(1-methyl-1H-pyrrolo[2,3-b]pyridin-5-yl)-2-oxo-1,2-dihydropyridine-3-carboxylic acid]	1 to 3.5 (≈ 3.36 to 11.8 µM)	12.5 to 150 (≈ 42 to 505 µM)	12.5 to 150 (≈ 42 to 505 µM)	12.5 to 150 (≈ 42 to 505 µM)	12.5 to 150 (≈ 42 to 505 µM)	12.5 to 150 (≈ 42 to 505 µM)	12.5 to 150 (≈ 42 to 505 µM)	12.5 to 150 (≈ 42 to 505 µM)	12.5 to 150 (≈ 42 to 505 µM)
Cc1cc2[nH]c(-c3[nH]c(=O)c(C(=O)O)c(O)c3C)cc2cc1F [Cpd 388, 6-(5-fluoro-6-methyl-1H-indol-2-yl)-4-hydroxy-5-methyl-2-oxo-1,2-dihydropyridine-3-carboxylic acid]	3.5 to 12.5 (≈ 11.1 to 39.5 µM)	12.5 to 150 (≈ 39.5 to 474 µM)	12.5 to 150 (≈ 39.5 to 474 µM)	12.5 to 150 (≈ 39.5 to 474 µM)	12.5 to 150 (≈ 39.5 to 474 µM)	12.5 to 150 (≈ 39.5 to 474 µM)	12.5 to 150 (≈ 39.5 to 474 µM)	12.5 to 150 (≈ 39.5 to 474 µM)	12.5 to 150 (≈ 39.5 to 474 µM)
CCc1cc(C(=O)O)c(=O)[nH]c1-c1ccc2nncn2c1.Cl [Cpd 50, 6-([1,2,4]triazolo[4,3-a]pyridin-6-yl)-5-ethyl-2-oxo-1,2-dihydropyridine-3-carboxylic acid hydrochloride]	12.5 to 150	12.5 to 150	12.5 to 150	12.5 to 150	12.5 to 150	12.5 to 150	12.5 to 150	12.5 to 150	12.5 to 150
CCc1c(-c2ccc3c(ccn3-c3ccccn3)c2)[nH]c(=O)c(C(=O)O)c1O [Cpd 436, 5-ethyl-4-hydroxy-2-oxo-6-(1-(pyridin-2-yl)-1H-indol-5-yl)-1,2-dihydropyridine-3-carboxylic acid]	< 1	1 to 3.5 (≈ 2.66 to 9.32 µM)	12.5 to 150 (≈ 33.3 to 400 µM)	12.5 to 150 (≈ 33.3 to 400 µM)	12.5 to 150 (≈ 33.3 to 400 µM)	12.5 to 150 (≈ 33.3 to 400 µM)	12.5 to 150 (≈ 33.3 to 400 µM)	12.5 to 150 (≈ 33.3 to 400 µM)	12.5 to 150 (≈ 33.3 to 400 µM)
Cc1c(-c2ccc3c(c2)cc(CNC(C)C)n3C)[nH]c(=O)c(C(=O)O)c1O [Cpd 348, 4-hydroxy-6-(2-((isopropylamino)methyl)-1-methyl-1H-indol-5-yl)-5-methyl-2-oxo-1,2-dihydropyridine-3-carboxylic acid]	< 1	12.5 to 150 (≈ 33.8 to 406 µM)	3.5 to 12.5 (≈ 9.47 to 33.8 µM)	1 to 3.5 (≈ 2.71 to 9.47 µM)	1 to 3.5 (≈ 2.71 to 9.47 µM)	1 to 3.5 (≈ 2.71 to 9.47 µM)	1 to 3.5 (≈ 2.71 to 9.47 µM)	12.5 to 150 (≈ 33.8 to 406 µM)	12.5 to 150 (≈ 33.8 to 406 µM)
CCc1c(-c2cc3c(N(C)C)nc(C)cn3n2)[nH]c(=O)c(C(=O)O)c1O [Cpd 401, 6-(4-(dimethylamino)-6-methylpyrazolo[1,5-a]pyrazin-2-yl)-5-ethyl-4-hydroxy-2-oxo-1,2-dihydropyridine-3-carboxylic acid]	3.5 to 12.5 (≈ 9.79 to 35 µM)	3.5 to 12.5 (≈ 9.79 to 35 µM)	12.5 to 150 (≈ 35 to 420 µM)	12.5 to 150 (≈ 35 to 420 µM)	12.5 to 150 (≈ 35 to 420 µM)	12.5 to 150 (≈ 35 to 420 µM)	12.5 to 150 (≈ 35 to 420 µM)	12.5 to 150 (≈ 35 to 420 µM)	12.5 to 150 (≈ 35 to 420 µM)
CCc1c(-c2cn3ccccc3n2)[nH]c(=O)c(C(=O)O)c1O [Cpd 400, 5-ethyl-4-hydroxy-6-(imidazo[1,2-a]pyridin-2-yl)-2-oxo-1,2-dihydropyridine-3-carboxylic acid]	1 to 3.5 (≈ 3.34 to 11.7 µM)	12.5 to 150 (≈ 41.8 to 501 µM)	12.5 to 150 (≈ 41.8 to 501 µM)	12.5 to 150 (≈ 41.8 to 501 µM)	12.5 to 150 (≈ 41.8 to 501 µM)	12.5 to 150 (≈ 41.8 to 501 µM)	12.5 to 150 (≈ 41.8 to 501 µM)	12.5 to 150 (≈ 41.8 to 501 µM)	12.5 to 150 (≈ 41.8 to 501 µM)
CCc1c(-c2ccc3c(c2)c(F)c(CNC)n3C)[nH]c(=O)c(C(=O)O)c1O [Cpd 368, 5-ethyl-6-(3-fluoro-1-methyl-2-((methylamino)methyl)-1H-indol-5-yl)-4-hydroxy-2-oxo-1,2-dihydropyridine-3-carboxylic acid]	< 1	12.5 to 150 (≈ 33.5 to 402 µM)	1 to 3.5 (≈ 2.68 to 9.37 µM)	3.5 to 12.5 (≈ 9.37 to 33.5 µM)	1 to 3.5 (≈ 2.68 to 9.37 µM)	1 to 3.5 (≈ 2.68 to 9.37 µM)	3.5 to 12.5 (≈ 9.37 to 33.5 µM)	12.5 to 150 (≈ 33.5 to 402 µM)	12.5 to 150 (≈ 33.5 to 402 µM)
C=CCc1c(-c2ccc3c(c2)cc(CN(C)C)n3C)[nH]c(=O)c(C(=O)O)c1O [Cpd 339, 5-allyl-6-(2-((dimethylamino)methyl)-1-methyl-1H-indol-5-yl)-4-hydroxy-2-oxo-1,2-dihydropyridine-3-carboxylic acid]	< 1	3.5 to 12.5 (≈ 9.18 to 32.8 µM)	< 1	3.5 to 12.5 (≈ 9.18 to 32.8 µM)	3.5 to 12.5 (≈ 9.18 to 32.8 µM)	1 to 3.5 (≈ 2.62 to 9.18 µM)	3.5 to 12.5 (≈ 9.18 to 32.8 µM)	12.5 to 150 (≈ 32.8 to 393 µM)	12.5 to 150 (≈ 32.8 to 393 µM)
